The record followed here is patent EP0887348A1, “Bis-Indole derivatives having antimetastatic activity, a process for their preparation and pharmaceutical compositions containing them” (Boehringer Mannheim Italia S.p.A., priority 1997, dated 1998).

The data set relates to Lewis Lung (3LL) murine carcinoma. Format: in vivo, Female mice C57BL/6N. As to the method: The "in vivo" testing was performed against the Lewis Lung (3LL) murine carcinoma according to the following protocol.
Female mice C57BL/6N were inoculated intrafootpad with tumor fragments at day 0. At day 11 the mice were anesthetized and their tumors removed surgically proximal to the popliteale limph nodes. Animals were treated intraperitoneally with the compounds of the invention from one day after surgery until the end of the experiment, day 22 (post-surgery treatment at days 12-15, 18-22). All the compounds were suspended in 0.5% methylcellulose. The mean number of the pulmonary metastases and the mean weight thereof were determined. The toxicity of the compounds of the invention at the administered dosage was also checked, as number of deaths/total no. of treated mice by the end of the experiment.

As to `c1cncc(C(c2c[nH]c3ccccc23)c2c[nH]c3ccccc23)c1` [example 1, 3-[bis(indol-3-yl)methyl]pyridine], the Toxicity (mouse, in vivo, ip, 200 mg/kg/day) is reported as 0/9. Moreover, the “Mean weight (mg) of metastases (S.D.)” value (pulmonary metastases, 200 mg/kg/day intraperitoneally, post-surgery treatment day 12-15, 18-22 after tumor injection, control 197.6 (55.0)) is reported as 99.2 (63.5) mg. Moreover, under “pulmonary metastases, 200 mg/kg/day intraperitoneally, post-surgery treatment day 12-15, 18-22 after tumor injection, suspended in 0.5% methylcellulose, control 65.9 (11.7)”, the “Mean No. of metastases (S.D.)” value was 31.4 (14.0).
